Substitutions are numbered along the chain they refer to.
Assays:
[1] = target: T1, TP A160V/F115A double mutant (Homo sapiens, UniProt P21731, A160V/F115A); experiment: Saturation radioligand binding with [3H] SQ 29,548, membranes; parameters: expressed in transfected cells; host or cells: COS-1 cells (membranes), transient, pMT4; conditions: picomoles of TP per milligram of total membrane protein, mean ± S.E
T1 sequence (P21731 1-343 F115A/A160V): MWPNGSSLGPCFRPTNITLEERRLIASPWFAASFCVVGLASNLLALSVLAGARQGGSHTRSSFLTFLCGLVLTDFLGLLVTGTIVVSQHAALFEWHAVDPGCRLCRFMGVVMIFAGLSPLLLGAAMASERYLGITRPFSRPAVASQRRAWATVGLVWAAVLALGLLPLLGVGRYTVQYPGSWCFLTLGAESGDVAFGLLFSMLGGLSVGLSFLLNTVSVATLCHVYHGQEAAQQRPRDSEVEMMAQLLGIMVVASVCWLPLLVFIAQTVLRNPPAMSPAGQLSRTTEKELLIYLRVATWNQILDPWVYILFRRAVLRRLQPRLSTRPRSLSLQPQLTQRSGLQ
Method: (§1) Amino acid substitutions were introduced into the synthetic TPα gene carried by the expression vector pMT4 as described previously, [29]. DNA sequences of all the mutated genes were verified by automated DNA sequencing. To minimize variations in transfection efficiency, the total amount transfected DNA was kept constant in all cases at 1 µg of DNA per 7×10^5 cells. The wild type TP or mutant genes were expressed in COS-1 cells using a DEAE-dextran based transient transfection method, [29], and in HEK293T cells using lipofectamine 2000 (Invitrogen). Except unless specified, the membranes prepared from COS-1 cells were used for radioligand binding assays and immunoblots. […] The protein concentration in the resuspended membrane pellet was determined using a modified DC protein assay kit from Bio-Rad Laboratories (Hercules, CA).
(§2) These were carried out in Buffer C for 60 min at room temperature, using 2 to 20 µg of membrane protein and different concentrations of [^3H] […] Filter-bound radioactivity was measured using a liquid scintillation counter. Equilibrium dissociation constants (Kd) were determined from saturation isotherms using PRISM software version 5.0 (GraphPad Software Inc, San Diego, CA, USA). The Ki values were calculated from the IC50, using the equation of Cheng and Prusoff by PRISM software version 5.0.

TP F115A mutant = target: T2, TP F115A mutant (Homo sapiens, UniProt P21731, F115A); experiment: as above; parameters: expressed in transfected cells; host or cells: COS-1 cells (membranes), transient, pMT4; conditions: picomoles of TP per milligram of total membrane protein, mean ± S.E
T2 sequence (P21731 1-343 F115A): T1 sequence (P21731 1-343 F115A/A160V) with V160A
Method: as §1, §2

TP F107A mutant = target: T3, TP F107A mutant (Homo sapiens, UniProt P21731, F107A); experiment: Intracellular calcium mobilization (Fluo-4NW) in transfected HEK293T cells; assay type: cell-based; conditions: read-out: EC50 of agonist U46619 (calcium mobilized), transiently transfected HEK293T cells, mean ± S.E
T3 construct: expressed in transfected cells; HEK293T (calcium assays)
T3 sequence (P21731 1-343 F107A): T1 sequence (P21731 1-343 F115A/A160V) with F107A, A115F, V160A
Method: (§3) Amino acid substitutions were introduced into the synthetic TPα gene carried by the expression vector pMT4 as described previously, [29]. DNA sequences of all the mutated genes were verified by automated DNA sequencing. To minimize variations in transfection efficiency, the total amount transfected DNA was kept constant in all cases at 1 µg of DNA per 7×10^5 cells. The wild type TP or mutant genes were expressed in COS-1 cells using a DEAE-dextran based transient transfection method, [29], and in HEK293T cells using lipofectamine 2000 (Invitrogen). Except unless specified, the membranes prepared from COS-1 cells were used for radioligand binding assays and immunoblots. For intracellular calcium determination assays and immunofluorescence imaging, HEK293T cells were used. For transient transfections of HEK293T cells using the plasmid pMT4, lipofectamine 2000 (Invitrogen) mediated transfection was used as described by the manufacturer. Membranes were prepared using Buffers A and B and as described previously, [29]. The protein concentration in the resuspended membrane pellet was determined using a modified DC protein assay kit from Bio-Rad Laboratories (Hercules, CA).
(§4) Changes in intracellular calcium were measured by using the fluorescent calcium sensitive dye Fluo-4NW (Invitrogen). After 6–8 hours of transient transfection of HEK293T cells using lipofectamine 2000, 100,000 viable cells were plated into each well of a 96-well tissue culture treated BD-falcon optilux plates. Cells mock transfected with vector pMT4 alone were used as a negative control. Following 24 hours of incubation at 37°C, the media was removed and cells were incubated with the dye Fluo-4NW (Invitrogen) containing 77 µg/ml of probenecid for 1 hour, as recommended by the manufacturer. […] Dose–response curves were generated and EC50 values calculated by nonlinear regression analysis using PRISM software version 5.0 (GraphPad Software Inc, San Diego, CA) after subtracting the responses of mock-transfected cells stimulated with same concentrations of agonists.

TP G164A mutant = target: T4, TP G164A mutant (Homo sapiens, UniProt P21731, G164A); experiment: as above; assay type: cell-based; conditions: read-out: EC50 of agonist U46619 (calcium mobilized), transiently transfected HEK293T cells, mean ± S.E
T4 construct: expressed in transfected cells; HEK293T (calcium assays)
T4 sequence (P21731 1-343 G164A): T1 sequence (P21731 1-343 F115A/A160V) with A115F, V160A, G164A
Method: as §3, §4

Bmax, binding maximum of the ligand SQ 29,548 for the receptor [1] | Bmax, binding maximum of the ligand SQ 29,548 for the receptor (TP F115A mutant) | EC50 (TP F107A mutant) | EC50 (TP G164A mutant) | SMILES
2.1 ± 0.4 pmol/mg | 1.8 ± 0.2 pmol/mg |  |  | O=C(O)CCC/C=C\C[C@@H]1[C@H](CNNC(=O)Nc2ccccc2)[C@H]2CC[C@@H]1O2 [SQ 29,548]
 |  | 2.5 ± 0.7 nM | 2.5 ± 0.2 nM | CCCCC[C@H](O)/C=C/[C@@H]1[C@@H](C/C=C\CCCC(=O)O)[C@H]2CO[C@@H]1C2 [U46619]

Source: article PMC3260207, “Site-Directed Mutations and the Polymorphic Variant Ala160Thr in the Human Thromboxane Receptor Uncover a Structural Role for Transmembrane Helix 4” (PLoS ONE, 2012)
